Experimental data: US7192714B2, “LDL receptor signaling assays” (Board of Regents, The University of Texas System, priority 2001, dated 2007)

Legend:
LRP-Gal4/VP16 = LRP-Gal4/VP16 luciferase reporter gene assay in transfected 293 cells; assay type: cell-based, human
Method: (§1) Cell Culture and transfection of 293 cells: The human embryonic kidney cell line HEK 293 (CRL-1573, ATCC) was maintained in monolayer culture at 37° C. under a 8% CO2 atmosphere. On day 0 cells were set up at a density of 5×105 per 60 mm dish in Dulbecco's Modified Eagle's Medium (low glucose) containing 100 U/ml penicillin, 100 ug/ml streptomycin sulfate and 10% (v/v) FCS. On day one cells were transfected by calcium phosphate precipitation (MBS Kit™, Stratagene, La Jolla, Calif., used according to manufacturers' instructions) with 9 ug of the pG5 E1B-Luc plasmid, 0.5 ug of pCMV-b-Gal for internal control of transfection efficiency, the respective receptor construct and expression vectors for different adapter proteins or other components as indicated in the text. On day two treatment with TPA or other reagents was started as described above and cells were harvested 24 h to 48 h later.
Reporter gene assays: 293 cells were harvested for reporter gene assays 48 h after transfection. Their culture medium was removed and the cells were washed once with PBS. After addition of 400 ul “Reporter Lysis Buffer” (Promega, Madison, Wis.) per 60mm dish cells were processed according to manufacturers' instructions. Luciferase gene expression was analyzed using the “Luciferase Assay System” (Promega, Madison, Wis.). A 10 s integral measurement of light emission from each reaction mixture was performed in a tube luminometer (Octopump II, MOM Instruments).
β-Gal assays for internal control of […] were carried out with an aliquot of the cell lysates prepared for the luciferase assay using the ‘Chemiluminescent b-Gal Detection Kit” (Clontech, Palo Alto, Calif.). Normalization of luciferase activity to b-Gal activity was done by dividing RLU values obtained with the first assay by those from the latter reaction. All transfections for reporter gene assays were repeated in at least two independent experiments.
Experimental Strategy. The Gal4/VP16 fusion protein, which consists of the DNA binding domain of the yeast Gal4 transcription factor and of the transactivating domain of the Herpes simplex virus protein VP16, is able to drive transcription from a luciferase reporter plasmid that contains five Gal4 binding elements in front of the adenoviral E1B minimal promoter and the firefly luciferase gene. […]
Treatment of 293 Cells with the Proteasome Inhibitor Lactacystin Stabilizes the Intracellular LRP-Cleavage Product. […] Subsequently cell lysates were prepared and examined for luciferase activity. β-Gal activity was measured to correct for transfection efficiency. […]

LRP [1] = assay: Endogenous LRP levels by Western blotting in untransfected 293 cells; assay type: cell-based, human
Method: (§2) SDS-Page and immunoblot analysis: SDS-Page and immunoblotting were performed according to standard procedures. Briefly, equal amounts of protein as determined with the Coomassie Plus Protein Reagent (Pierce, Rockford, Ill.) were loaded on 4–12% SDS PA gels. After electrophoresis and protein transfer on a PVDF membrane immunoblot, analysis was carried out with rabbit polyclonal antibodies against a C-terminal fragment of LRP. Bound antibodies were visualized with peroxidase-conjugated anti-rabbit IgG by using the SuperSignal CL-HRP Substrate (Pierce, Rockford, Ill.) according to the manufacturer's instructions.
(§3) Then cell lysates were prepared and analyzed by Western Blotting. The antibody used for immunostaining is directed against LRP's C-terminus.
TPA Treatment Leads To Decreased LRP Levels in 293 Cells. […] Then cell lysates were prepared and analyzed by Western Blotting. The antibody used for immunostaining is directed against LRP's C-terminus.

pMstGV-APP construct = assay: APP-Gal4/VP16 (pMstGV-APP) luciferase reporter gene assay in transfected 293 cells; assay type: cell-based, human; settings: 100 nM TPA for 24 h
Method: as §1
(§4) Reporter gene assays: 293 cells were harvested for reporter gene assays 48 h after transfection. Their culture medium was removed and the cells were washed once with PBS. After addition of 400 ul “Reporter Lysis Buffer” (Promega, Madison, Wis.) per 60mm dish cells were processed according to manufacturers' instructions. Luciferase gene expression was analyzed using the “Luciferase Assay System” (Promega, Madison, Wis.). […]

pMstGV-LDL-R construct = assay: LDL-R-Gal4/VP16 (pMstGV-LDL-R) luciferase reporter gene assay in transfected 293 cells; assay type: cell-based, human; settings: 100 nM TPA for 24 h
Method: as §1, §4

LRP [2] = assay: Endogenous LRP levels by Western blotting in MEF-1 cells; assay type: cell-based, mouse
Method: as §2, §3
Decrease of LRP Levels after TPA Treatment is Time-Dependent. […] Then cell lysates were prepared and used for SDS-PAGE and Western Blotting. LRP was stained with an antibody directed against its cytoplasmic tail.

| Compound | luciferase activity, elevation under stimulated versus unstimulated conditions (LRP-Gal4/VP16; 100 nM TPA for 24 h, pcDNA3.1-LRP-Gal4/VP16) | corrected luciferase activity (intracellular/intramembraneous LRP cleavage) versus unstimulated cells (LRP-Gal4/VP16; 100 nM TPA, time periods of 12, 16, 20 and 24, pcDNA3.1-LRP-Gal4/VP16) | effect on endogenous LRP levels (LRP [1]; 100 nM TPA for 24 h or time indicated, untransfected 293 cells) | decrease of cellular LRP levels (LRP [1]; 100 nM TPA, various time periods up to 48 h, Western blot, antibody against LRP C-terminus, text names 293 and MEF-1 cells, heading 293) [%] | luciferase activity, stimulated versus unstimulated (pMstGV-APP construct) | luciferase activity, stimulated versus unstimulated (pMstGV-LDL-R construct) | effect on endogenous LRP levels (LRP [2]; 100 nM TPA for 24 h or time indicated) | decrease of LRP levels, time course (LRP [2]; TPA for 0.5, 1.5, 5, 5, 6 and 24 h) | luciferase signal enhancement (stabilization of intracellular LRP-cleavage product) (LRP-Gal4/VP16; 10 uM lactacystin for 24 h) | luciferase signal enhancement (stabilization of intracellular LRP-cleavage product) (LRP-Gal4/VP16; 50 uM lactacystin for 24 h) |
| --- | --- | --- | --- | --- | --- | --- | --- | --- | --- | --- |
| CCCCCCCCCCCCCC(=O)O[C@@H]1[C@@H](C)[C@@]2(O)[C@@H](C=C(CO)C[C@]3(O)C(=O)C(C)=C[C@@H]23)[C@@H]2C(C)(C)[C@]12OC(C)=O [TPA, Phorbol 12-myristate 13-acetate] | up to 10 fold | linear increase | Lowers Endogenous LRP Levels | ≤ 90 | equivalent elevated activity under both stimulated and unstimulated conditions | negligible activity under stimulated and unstimulated conditions | Lowers Endogenous LRP Levels | Time-Dependent |  |  |
| CC(=O)N[C@@H](CSC(=O)[C@]1([C@@H](O)C(C)C)NC(=O)[C@H](C)[C@@H]1O)C(=O)O [lactacystin, Lactacystin] |  |  |  |  |  |  |  |  | about 25 fold | about 25 fold |
